Several values for one entry are separate records, joined by “and”; a condition that tells them apart may be missing. Equal values may be shown once. Read-outs that look alike come from different tables or passages of the source. Where a SMILES comes first, the peptide text is derived from it. [ ]: non-standard residue; d: D form. The star is where a group is joined. NHCH2CH2OH = OCCN*; For = O=C*
How the values were obtained:
[1] = IC50, mammalian cytotoxicity assay
rabbit red blood cells = conditions: red cells of rabbit, 2 h
[2] = test system: Enterococcus faecalis JCM5803; conditions: for antibacterial activity/MIC: E. faecalis; for Antibacterial activity MIC: JCM5803
Method in brief: (§1)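 Growth inhibition was scored after 18–24 h at 37 °C in cation-adjusted Mueller Hinton broth, with laked horse blood (5%) included for streptococcal strains. Inocula were standardized by OD 625 and diluted to about 5 × 10^4 CFU/well.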

[3] = test system: Listeria monocytogenes 10403S; conditions: for antibacterial activity/MIC: L. monocytogenes; for Antibacterial activity MIC: 10403S
Method in brief: as §1

[4] = test system: Streptococcus agalactiae JCM5671; conditions: for Antibacterial activity MIC: JCM5671; for antibacterial activity/MIC: S. agalactiae
Method in brief: as §1

[5] = test system: Streptococcus pneumoniae NBRC 102642; conditions: for Antibacterial activity MIC: NBRC 102642; for antibacterial activity/MIC: S. pneumoniae
Method in brief: as §1

[6] = test system: Streptococcus pyogenes SSI-9; conditions: for antibacterial activity/MIC: S. pyogenes; for Antibacterial activity MIC: SSI-9
Method in brief: as §1

[7] = test system: MSSA1 (methicillin-susceptible Staphylococcus aureus); assay type: cell-based
[8] = H+/Na+ transport assay of purified peptides; conditions: for Supplementary Figure 5 dose-response value (H+/Na+ transport): three replicate lines
Experimental: First, we evaluated the ion channel function of 1 using liposomes. To mimic a negatively charged Gram-positive bacterial membrane, the liposomes were prepared as large unilamellar vesicles (LUVs) comprising a 19:1 mixture of egg yolk phosphatidylcholine (EYPC) and egg yolk phosphatidylglycerol (EYPG)[57]. Pyranine, a pH-dependent fluorescent dye[58], was encapsulated in the LUVs and a pH gradient was applied across the membrane. H^+/Na^+ transport induced by a peptide was monitored by changes in the fluorescence intensity of pyranine.

[9] = read-out: EC50, H+/Na+ transport assay, 1st experiment
[10] = read-out: EC50, H+/Na+ transport assay, 2nd experiment
[11] = read-out: EC50, H+/Na+ transport assay, 3rd experiment
[12] = read-out: H+/Na+ transport activity EC50, EYPC/EYPG (19:1) LUVs
[13] = read-out: H+/Na+ transport activity/EC50, mean ± SD of three independent experiments

| SMILES | IC50 [1] | Hemolytic activity HC10 (concentration causing 10% hemolysis) (rabbit red blood cells) | antibacterial activity/MIC [2] | Antibacterial activity MIC [2] | antibacterial activity/MIC [3] | Antibacterial activity MIC [4] | antibacterial activity/MIC [4] | Antibacterial activity MIC [5] | antibacterial activity/MIC [5] | antibacterial activity/MIC [6] | Antibacterial activity MIC [6] | antibacterial activity/MIC [7] | Supplementary Figure 5 dose-response value (H+/Na+ transport) ([8]; concentration 0.000512 nM) | Supplementary Figure 5 dose-response value (H+/Na+ transport) ([8]; concentration 0.00256 nM) | Supplementary Figure 5 dose-response value (H+/Na+ transport) ([8]; concentration 0.0128 nM) | Supplementary Figure 5 dose-response value (H+/Na+ transport) ([8]; concentration 0.064 nM) | Supplementary Figure 5 dose-response value (H+/Na+ transport) ([8]; concentration 0.32 nM) | Supplementary Figure 5 dose-response value (H+/Na+ transport) ([8]; concentration 1.6 nM) | Supplementary Figure 5 dose-response value (H+/Na+ transport) ([8]; concentration 8 nM) | Supplementary Figure 5 dose-response value (H+/Na+ transport) ([8]; concentration 40 nM) | also measured |
| --- | --- | --- | --- | --- | --- | --- | --- | --- | --- | --- | --- | --- | --- | --- | --- | --- | --- | --- | --- | --- | --- |
| CC(C)C[C@@H](NC(=O)[C@H](C)NC(=O)CNC(=O)[C@@H](NC=O)C(C)C)C(=O)N[C@@H](C)C(=O)N[C@@H](C(=O)N[C@H](C(=O)N[C@@H](C(=O)N[C@@H](Cc1c[nH]c2ccccc12)C(=O)N[C@H](CC(C)C)C(=O)N[C@@H](Cc1c[nH]c2ccccc12)C(=O)N[C@H](CC(C)C)C(=O)N[C@@H](Cc1c[nH]c2ccccc12)C(=O)N[C@H](CC(C)C)C(=O)N[C@@H](Cc1c[nH]c2ccccc12)C(=O)NCCO)[C@H](C)O)C(C)C)C(C)C [B13] (For-VGA[dL]A[dV]V[dT]W[dL]W[dL]W[dL]W-NHCH2CH2OH) | > 1000 nM | > 3000 nM | 4 µg/mL | 2.1 µM | 2 µg/mL | 4.2 µM | 8 µg/mL | 0.033 µM | 0.063 µg/mL | 1 µg/mL | 0.53 µM | 8 µg/mL | 3.017 and 1.952 and 2.608 | 3.102 and 3.766 and 3.197 | 2.802 and 3.448 and 5.087 | 7.573 and 8.7038 and 6.571 | 17.1662 and 17.5754 and 16.2478 | 34.5009 and 38.0687 and 36.068 | 62.5081 and 62.2715 and 60.6584 | 69.7421 and 65.8817 and 68.9295 | Supplementary Figure 5 dose-response value (H+/Na+ transport) ([8]; concentration 200 nM): 70.9489 and 69.9169 and 66.3002; Supplementary Figure 5 dose-response value (H+/Na+ transport) ([8]; concentration 1000 nM): 70.4102 and 68.4527 and 68.0392; Supplementary Figure 5 dose-response value (H+/Na+ transport) ([8]; concentration 5000 nM): 77.0905 and 71.4732 and 77.0208; EC50 [8, 9]: 1.54 nM; EC50 [8, 10]: 1.6 nM; EC50 [8, 11]: 1.51 nM; EC50 [8, 12]: 1.6 nM; EC50 [8, 13]: 1.55 ± 0.04 nM |
| CC(C)C[C@@H](NC(=O)[C@H](C)NC(=O)[C@H](NC(=O)[C@H](C)NC(=O)CNC(=O)[C@@H](NC=O)C(C)C)[C@H](C)O)C(=O)N[C@H](C(=O)N[C@H](CC(C)C)C(=O)N[C@@H](Cc1c[nH]c2ccccc12)C(=O)N[C@@H](C(=O)N[C@@H](Cc1c[nH]c2ccccc12)C(=O)N[C@H](CC(C)C)C(=O)N[C@@H](Cc1c[nH]c2ccccc12)C(=O)N[C@@H](C(=O)N[C@@H](Cc1c[nH]c2ccccc12)C(=O)NCCO)C(C)C)[C@H](C)O)C(C)C [B21] (For-VGA[dT]A[dL]V[dL]W[dT]W[dL]W[dV]W-NHCH2CH2OH) | > 1000 nM | > 3000 nM | 8 µg/mL | 4.3 µM | > 64 µg/mL | 34 µM | 64 µg/mL | 0.53 µM | 1 µg/mL | 32 µg/mL | 17 µM | 16 µg/mL | 2.384 and 1.443 and 2.029 | 3.95 and 1.0017 and 1.216 | 7.632 and 2.998 and 3.58 | 6.775 and 3.579 and 3.365 | 12.3823 and 9.367 and 13.3536 | 41.7064 and 40.5042 and 40.751 | 73.419 and 69.4178 and 73.375 | 75.8465 and 74.348 and 76.0982 | Antibacterial activity MIC [3]: > 34 µM; Supplementary Figure 5 dose-response value (H+/Na+ transport) ([8]; concentration 200 nM): 78.878 and 79.2127 and 80.049; Supplementary Figure 5 dose-response value (H+/Na+ transport) ([8]; concentration 1000 nM): 81.8535 and 78.0432 and 78.4426; Supplementary Figure 5 dose-response value (H+/Na+ transport) ([8]; concentration 5000 nM): 82.5653 and 78.9179 and 76.8722; EC50 [8, 9]: 1.57 nM; EC50 [8, 10]: 1.58 nM; EC50 [8, 11]: 1.32 nM; EC50 [8, 12]: 1.5 nM; EC50 [8, 13]: 1.49 ± 0.15 nM |
| CNC(=O)C[C@@H](NC(=O)[C@@H](NC(=O)[C@@H](CC(C)C)NC(=O)[C@H](C)NC(=O)[C@@H](CC(C)C)NC(=O)[C@H](C)NC(=O)CNC(=O)[C@@H](NC=O)C(C)C)C(C)C)C(=O)N[C@@H](Cc1c[nH]c2ccccc12)C(=O)N[C@H](CC(C)C)C(=O)N[C@@H](Cc1c[nH]c2ccccc12)C(=O)N[C@H](CC(C)C)C(=O)N[C@@H](Cc1c[nH]c2ccccc12)C(=O)N[C@@H](C(=O)N[C@@H](Cc1c[nH]c2ccccc12)C(=O)NCCO)[C@H](C)O [B22] (For-VGA[dL]A[dL]V[dD](NHMe)W[dL]W[dL]W[dT]W-NHCH2CH2OH) | > 1000 nM | > 3000 nM | 64 µg/mL | 33 µM | > 64 µg/mL | > 33 µM | > 64 µg/mL | 1 µM | 2 µg/mL | > 64 µg/mL | > 33 µM | > 64 µg/mL | 3.488 and 0.6119 and 2.737 | 2.255 and -0.3059 and 2.73 | 4.874 and 2.041 and 3.252 | 5.2777 and 5.073 and 4.243 | 9.536 and 13.0972 and 10.1736 | 28.0205 and 30.7244 and 31.4442 | 63.0425 and 64.573 and 66.6211 | 71.1735 and 74.4694 and 76.8331 | Antibacterial activity MIC [3]: > 33 µM; Supplementary Figure 5 dose-response value (H+/Na+ transport) ([8]; concentration 200 nM): 80.49 and 75.6285 and 73.1074; Supplementary Figure 5 dose-response value (H+/Na+ transport) ([8]; concentration 1000 nM): 79.8358 and 79.3757 and 78.5441; Supplementary Figure 5 dose-response value (H+/Na+ transport) ([8]; concentration 5000 nM): 88.1657 and 79.255 and 76.0319; EC50 [8, 9]: 2.49 nM; EC50 [8, 10]: 2.93 nM; EC50 [8, 11]: 1.94 nM; EC50 [8, 12]: 2.5 nM; EC50 [8, 13]: 2.45 ± 0.5 nM |
